These results are taken from patent US5143906A, “Kedarcidin antitumor chromophore and pharmaceutical composition containing same” (Bristol-Myers Squibb Company, priority 1991, dated 1992).

The test system of one data set is P388 murine leukemia. In words: P388 murine leukemia models, ip and iv implanted (summary). Type of data set: in vivo, murine (CDF1 mice). The source says:
The P388 tumor was maintained in ascitic form in DBA/2 mice. Experimental tumor models used CDF^1 mice implanted via the intraperitoneal or intravenous route with 1×10^6 leukemia cells on day 0 and dosed with drugs according to the indicated route and schedule. Mice were weighed on day 0 and on day 5 or 6. Weight loss of 20% or greater was an indicator of drug toxicity. Each dose group consisted of 6 mice with 10 mice in the untreated control group. The dosing schedule was Q1DX1;1. Death checks were performed daily and the median life span of each group determined. […] Experiments were terminated on or about day 30.

The nature of a further data set: Stability in solution. Type of data set: physicochemical.
For data set [1], the system named is several human tumor cell lines. Kind of data set: In vitro cytotoxicity assay, several human tumor cell lines (summary). Type of data set: cell-based. An excerpt: The cell lines used to evaluate in vitro cytotoxic potency include the human colon adenocarcinoma HCT116 drug sensitive line, HCT 116/VP35 and HCT116/VM46 daughter drug resistant cell lines that have low Topoisomerase II and elevated P-170 glycoprotein levels^1; respectively, and the human ovarian carcinoma A2780 drug sensitive and the A2780/DDP daughter drug resistant cell line. The A2780/DDP cell line is reported to be resistant through enhanced DNA repair mechanisms and elevated GSH/GST levels. Cells were cultured in McCoy's media and 10% fetal bovine serum. When in log phase growth, 4×10^3 cells/well were plated into 96 well microtiter plates and incubated at 37° C. in […] /5% CO2 for 24 hours to allow cell attachment. Compounds were added to the top row of wells, serially diluted (4 fold dilutions) and incubated for an additional 72 hours. The number of viable cells in each well was then quantitated as previously described^2 by adding 0.05 mg/ml final concentration tetrazolium stain (XTT) in the presence of 0.005 mM final concentration phenazine methosulfate. After incubation at room temperature for 3 hours to allow color development, optical density values were measured using a Dynatech MR600 plate reader at […]. IC50 values (drug concentration inhibiting cell growth by 50%) were calculated using linear regression analysis of the optical density readings. […]

Entries after “also recorded” stand apart in the source; their conditions may differ.

In the case of `COc1c(OC(C)C)cc2cc(O)c(C(=O)N[C@@H]3CC(=O)OC[C@@H](O[C@H]4C[C@H](O)[C@H](N(C)C)[C@H](C)O4)/C4=C/C#C[C@@H]5O[C@]56C(=C[C@H](Oc5ccc3nc5Cl)[C@@H]6O[C@H]3C[C@@](C)(O)[C@@H](O)[C@H](C)O3)C#C4)cc2c1OC` [Kedarcidin chromophore], the “efficacy and potency compared to kedarcidin” value in the data set with P388 murine leukemia (P388 model) is “as efficacious as, and slightly more potent than, kedarcidin; also recorded: as active as, and slightly more potent than, kedarcidin”. In addition, the “antitumor activity in P388 models” value in the data set with P388 murine leukemia (ip, ip or iv, iv model) was “both potent and efficacious; also recorded: significant antitumor activity; also recorded: in vivo antitumor activity”. The Stability entry in “Stability in solution” was “Very unstable”. The Decomposition in solution entry in the data set “Stability in solution” (in solution with benzene, methanol, chloroform and DMSO) is “Decomposes within hours”. The “ability to inhibit cell growth” value in data set [1] (compared to VP-16) is given as “extremely potent”. Also, in data set [1] (several human tumor cell lines), the “antitumor in vitro activity” value was “potent antitumor in vitro activity”.
